Consider 13 compounds from PubChem BioAssay (NCI).

SMILES strings stand for the structures.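 A five-concentration, 48-hour dose response in 96-well plates underlies each endpoint, interpolated linearly between surrounding concentrations. TGI: concentration producing complete growth inhibition.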

Common to all, as to experiment: inhibition of tumour cell growth, NCI panel, 48 h
The test system of experiment [1] is DU-145 prostate.
Experiment [2] concerns HT29 colon.
The test system of experiment [3] is SF-539 CNS.
Experiment [4] has as its system HCT-116 colon.
Experiment [5] relates to BT-549 breast.
Experiment [6] relates to SK-MEL-28 melanoma.
For experiment [7], the system named is SN12C renal.
The subject of experiment [8] is HS 578T breast.
In experiment [9] the test system is MALME-3M melanoma.
For experiment [10], the system named is UACC-62 melanoma.
For experiment [11], the system named is HOP-92 NSCLC.

Consider `COC(=O)c1ccccc1CC1Cc2ccc3c(c2C1=O)CCCC3` (stereo not given), for which the TGI in experiment [1], in experiment [2], in experiment [3], in [4], in experiment [5] and in experiment [6] was more than 100 µM throughout. Moreover, the TGI in [7] was more than 100 µM; in experiment [8], more than 100 µM; in [9], more than 82.5 µM; in [10], more than 100 µM.
For the compound `NC(=O)NCCCC(NC(=O)OCCCCn1ccc(=O)[nH]c1=O)C(=O)O` (stereo not given), the TGI in [1], in experiment [2], in experiment [3], in experiment [4], in experiment [5] and in [6] was more than 100 µM throughout. Besides, the TGI in experiment [7], in experiment [8], in [11] and in experiment [10] was more than 100 µM throughout.
Consider `CC(C)(C)OC(=O)NCCCCC1NC(=O)[C@@H]2Cc3c([nH]c4ccccc34)C(C3CCCCC3)N2C1=O` (stereo not given in full), for which the TGI in [1], in experiment [2], in [4], in experiment [5], in experiment [6] and in [7] was more than 100 µM each time. Moreover, the TGI in experiment [8], in experiment [9], in [11] and in experiment [10] was more than 100 µM in each case.
Take `O=c1c2cc([N+](=O)[O-])cnc2sn1-c1ccc([N+](=O)[O-])cc1`: the TGI was more than 100 µM in experiment [1]; 55.8 µM in [2]; more than 100 µM in experiment [3]; 83.9 µM in [4]; 93.9 µM in experiment [5]; more than 100 µM in experiment [6]. Besides, the TGI was more than 100 µM in experiment [7], 90 µM in experiment [8], 53 µM in experiment [9] and more than 100 µM in experiment [10].
For the compound `Nn1c(-c2ccccc2)nn(C(=O)c2ccccc2)c1=O`, the TGI in experiment [1], in experiment [2], in experiment [3], in [4], in [5] and in experiment [6] was more than 100 µM each time. Further, the TGI in [7], in experiment [8], in experiment [9] and in [11] was more than 100 µM in each case.
Turning to `Cc1ccc(-c2n[nH]c(=O)n2N2C(=O)c3ccccc3C2=O)cc1`, the TGI in experiment [1], in experiment [2], in experiment [3], in experiment [4], in [5] and in [6] was more than 100 µM throughout. Besides, the TGI in experiment [7], in [8], in experiment [9] and in experiment [10] was more than 100 µM throughout.
Take `CCOC(=O)CSc1c(C(=O)OCC)c(=O)n(-c2ccccc2)c(=S)n1-c1ccccc1`: the TGI in experiment [1], in [2], in [4], in [5], in [6] and in [7] was more than 100 µM in each case. The TGI in experiment [8] is more than 100 µM; in experiment [9], more than 100 µM; in [11], 20.6 µM; in experiment [10], more than 100 µM.
Turning to `C=CCN1C[C@H](C)N([C@H](c2ccc(C(=O)NC(CC)CC)cc2)c2cccc(OC)c2)C[C@H]1C`, the TGI in experiment [1] was more than 100 µM; in [2], 61.1 µM; in experiment [3] it was 43.4 µM; in [4], more than 100 µM; in experiment [5], 99.6 µM; in experiment [7], more than 100 µM. Moreover, the TGI in experiment [8] was more than 100 µM; in experiment [9], 43.5 µM; in experiment [11], more than 100 µM; in [10] it was 51.1 µM.
With `COc1cc(C(=O)N(C(=S)OCc2ccccn2)c2ccccc2)cc(OC)c1OC`, the TGI in experiment [1] is more than 100 µM; in experiment [2] it was more than 100 µM; in experiment [3], 81 µM; in [4], more than 100 µM; in experiment [5], more than 100 µM; in experiment [6], more than 100 µM. Moreover, the TGI in experiment [7] was more than 100 µM; in experiment [8] it was more than 100 µM; in experiment [9], 62 µM; in [10], more than 100 µM.
Consider `O=c1ccc(-c2ccccc2)n[nH]1`, for which the TGI in experiment [1], in [2], in [4], in experiment [5], in experiment [6] and in experiment [7] was more than 100 µM each time. For the same compound, the TGI in experiment [8], in [9], in experiment [11] and in experiment [10] was more than 100 µM throughout.
As for `COc1ccc2cc(NC(=O)N/N=C\c3ccc([N+](=O)[O-])cc3)ccc2c1`, the TGI in experiment [1] is more than 100 µM; in [2], more than 100 µM; in experiment [4], more than 100 µM; in experiment [5], 76.5 µM; in experiment [6], more than 100 µM; in experiment [7] it was more than 100 µM. Moreover, the TGI in experiment [8], in [9], in experiment [11] and in experiment [10] was more than 100 µM throughout.
`CCCCCCCCCCCCCCNC(=O)CCC(NC(=O)c1ccc(N(C)Cc2cnc3nc(N)nc(N)c3n2)cc1)C(=O)NCCCCCCCCCCCCCC` (stereo not given): the TGI in experiment [1] is more than 100 µM; in experiment [2], 27 µM; in [3] it was 16.3 µM; in experiment [4], more than 100 µM; in [5], 41.1 µM; in experiment [6], 40.7 µM. The TGI in experiment [7] came to 33.8 µM; in experiment [8], 29.1 µM; in experiment [11], 63.8 µM; in [10], 22.2 µM.
On to `COCO[C@@H]1C[C@H]2C(=O)Nc3ccccc3C(=O)N2C1`, for which the TGI in experiment [1], in experiment [2], in experiment [3], in experiment [4], in experiment [5] and in [6] was more than 100 µM throughout. The TGI in [7], in experiment [8], in experiment [9] and in experiment [10] was more than 100 µM in each case.
